Measurements from a melting point compilation (Tetko et al.; mined from patent text by program, amines drawn as free bases though some values may be those of a salt).

First: COC(=O)[C@H](C)N(C(=O)[C@H](CC(C)C)NC(=O)OC(C)(C)C)c1ccc(Cl)c(Cl)c1
Second: COc1ccc2cc(NC(=O)OC(C)(C)C)ccc2c1
The melting point of the first is lower: 117 to 119 °C for the first, 124 to 127 °C for the second.

Compared with `CCC(CC)C(NS(=O)(=O)c1ccc(Cl)s1)c1ncnn1Cc1ccc(C)cc1` (centres undefined), `CC(C)(C)Nc1nc(-c2ccc(F)cc2)c(-c2ccc(S(C)(=O)=O)cc2)s1` is higher in melting point: 103 to 104 °C for the first, 250 to 253 °C for the second.

First: COc1ccc(O[C@@H]2COc3ccc(OCc4ccccn4)cc3[C@@H]2O)cc1 (relative stereo)
Second: COc1cc(OCc2ccccc2)ccc1C(=O)c1cc(Cl)ccc1N
The melting point of the first is higher: 117 to 118 °C for the first, 97 to 98 °C for the second.

First: CC(C)N1CCOC(COc2cccc3c2CC=C3)C1 (centres undefined)
Second: CC(c1ccc2c(c1)C(=O)c1ccccc1C2=O)N1CCN(C)CC1 (centres undefined)
The melting point of the first is higher: 107 to 109 °C for the first, 98.9 to 102 °C for the second.

First: CCn1cc(-c2cccc(C(F)(F)F)c2)c(=O)n1-c1cccc(Br)c1
Second: Cn1c(C(F)(F)F)cc(=O)n(-c2cc(Oc3ccccc3OCc3ccccc3)c(Cl)cc2F)c1=O
The melting point of the first is higher: 106 °C for the first, 50.8 °C for the second.

First: O=Cc1ccc(OCc2ccsc2)cc1OC(C(=O)O)c1ccccc1 (racemic)
Second: Cc1cc(CC(=O)OC(C)(C)C)ccc1NC(=O)Nc1ccccc1
The melting point of the first is higher: 172 to 174 °C for the first, 143 to 145 °C for the second.

First: CCCn1cc(S(C)=O)c(=O)c2ccccc21 (centres undefined)
Second: Cc1[nH]cnc1CC1CCc2c(c3ccccc3n2C)C1=O (single isomer, unassigned; (+))
The melting point of the first is lower: 126 to 128 °C for the first, 230 to 232 °C for the second.

First: O=c1cc(Br)ccn1C1CC1
Second: CC(=O)Nc1ccn(C2CCC(CO)O2)c(=O)n1 (centres undefined)
The melting point of the first is lower: 91 to 94 °C for the first, 143 to 145 °C for the second.

Compared with `COc1ccc2oc(C(N)=O)c(-c3nnn[nH]3)c2c1`, `COc1ccc2c(c1)cc1c3c(cccc32)C(=O)OC1=O` is higher in melting point: 205 °C for the first, 292 to 293 °C for the second.

First: Fc1cc2nc3c(cnn3-c3ccccn3)c(Cl)c2cc1F
Second: C#Cc1cc2c(Nc3ccc(OCc4cccc(F)c4)c(Cl)c3)ncnc2s1
The melting point of the first is lower: 167 to 168 °C for the first, 197 °C for the second.

First: CCCNCCCOc1ccc(-c2ccc(C(=O)OCC)cc2)cc1-c1ccc2c(c1)C(C)(C)CCC2(C)C
Second: CCCCCCCCOc1ccc(-c2ccc(C(=O)Oc3ccc(C(C)(Br)C(=O)OC)cc3)cc2)cc1 (centres undefined)
The melting point of the first is higher: 120 °C for the first, 104 to 105 °C for the second.

First: COc1ccc(C(=O)CC2CCCC2)c(Cl)c1Cl
Second: CCCc1[nH]c2cc(C(=O)OC)ccc2c1C(=O)C1CCC1
The melting point of the first is lower: 60 to 61.5 °C for the first, 159 to 160 °C for the second.

Compared with `O=C(O)C(=O)C(=O)Nc1cccc([N+](=O)[O-])c1`, `O=C(NCCc1cccs1)c1cc(Cl)cc(Cl)c1` is lower in melting point: 110 °C for the first, 100 to 102 °C for the second.

`CCOP(=O)(C=Cc1ccc(N)cc1)OCC` and `CCCCCCCCCCOc1ccc(C(=O)C=O)cc1` cannot be ordered by melting point: 81 °C for the first, 81 to 83 °C for the second.

First: CS(=O)(=O)c1ccc(-c2ccc(N=[N+]=[N-])nc2-c2ccc(F)cc2)cc1
Second: CC(=CC#N)c1cc(-c2ccc(S(C)(=O)=O)cc2)c(-c2ccc(F)cc2)s1
The melting point of the first is higher: 229 °C for the first, 150 to 154 °C for the second.

Compared with `Cc1nnc(C=Cc2ccccc2O)s1`, `Oc1ccc(-c2noc(C3CC3)c2-c2ccccc2)cc1` is lower in melting point: 253 to 254 °C for the first, 197 to 200 °C for the second.

First: O=C(O)c1ccc2c(c1)nc(-c1ccc(OC(c3cccc(F)c3)c3cccc(F)c3)cc1F)n2C1CCCCC1
Second: Cc1cccc(C(=NO)c2ccc(OCCOc3ccc(C(=NO)c4cccc(C)c4)cc3)cc2)c1
The melting point of the first is higher: 242 to 243 °C for the first, 151 to 153 °C for the second.

First: CNC1([C@@H]2CCN(c3ccc4c(=O)c(C(=O)O)cn(C5CC5)c4c3C)C2)CC1
Second: CC(C)N1C(=O)C(NC(=O)Cc2cc(Cl)cc(Cl)c2)C(=O)N(CC(F)(F)F)c2ccccc21 (centres undefined)
The melting point of the first is higher: 190 to 192 °C for the first, 185 to 186 °C for the second.

First: CC(C)(C)OC(=O)[C@@H]1CCCN1C(=O)CCS
Second: CCn1c(=O)c2c(nc(/C=C/c3ccc(OC)c(C)c3OC)n2C)n(CC)c1=O
The melting point of the first is lower: 57 to 58 °C for the first, 196 to 197 °C for the second.

`CN(C)c1ccc(C=C2Cc3cc4c(cc3C2=O)CCCC4)cc1` gave a melting point of 161 to 163 °C.
